According to the NIST ThermoML archive (doi:10.1021/acs.jced.8b00854):
± gives the expanded uncertainty stated by the source.

Tests used:
[1] = refractive index (Na D-line) (dimensionless); xn = mol fraction of the nth substance listed; settings: 100 kPa, Liquid, Standard Abbe refractometry
[2] = xn = mol fraction of the nth substance listed; settings: 100 kPa, Liquid, Vibrating tube method

CCCCCCn1cc[n+](C)c1.F[B-](F)(F)F [1-hexyl-3-methylimidazolium tetrafluoroborate] + O
Settings	mass density, [2] [kg/m3]	refractive index, [1]
293.15 K, x1 = 0.3006	1117.21 ± 2	1.415 ± 0.0019
293.15 K, x1 = 0.4005	1125.26 ± 2	1.418 ± 0.0016
293.15 K, x1 = 0.4999	1132.22 ± 2	1.4195 ± 0.0017
293.15 K, x1 = 0.6008	1136.97 ± 2	1.422 ± 0.0016
293.15 K, x1 = 0.7004	1140.58 ± 2	1.4245 ± 0.0016
293.15 K, x1 = 0.7996	1143.29 ± 2	1.425 ± 0.0016
293.15 K, x1 = 0.8997	1145.34 ± 2	1.427 ± 0.0016
303.15 K, x1 = 0.3006	1109.91 ± 2	1.414 ± 0.0017
303.15 K, x1 = 0.4005	1117.8 ± 2	1.415 ± 0.0017
303.15 K, x1 = 0.4999	1125.06 ± 2	1.417 ± 0.0016
303.15 K, x1 = 0.6008	1129.88 ± 2	1.42 ± 0.0016
303.15 K, x1 = 0.7004	1133.55 ± 2	1.422 ± 0.0016
303.15 K, x1 = 0.7996	1136.29 ± 2	1.4235 ± 0.0016
303.15 K, x1 = 0.8997	1138.36 ± 2	1.425 ± 0.0016
313.15 K, x1 = 0.3006	1102.56 ± 2	1.409 ± 0.0017
313.15 K, x1 = 0.4005	1110.53 ± 2	1.412 ± 0.0016
313.15 K, x1 = 0.4999	1117.91 ± 2	1.4165 ± 0.0016
313.15 K, x1 = 0.6008	1122.81 ± 2	1.419 ± 0.0016
313.15 K, x1 = 0.7004	1126.54 ± 2	1.421 ± 0.0016
313.15 K, x1 = 0.7996	1129.34 ± 2	1.4215 ± 0.0016
313.15 K, x1 = 0.8997	1131.42 ± 2	1.423 ± 0.0016
323.15 K, x1 = 0.3006	1095.15 ± 2	1.408 ± 0.0016
323.15 K, x1 = 0.4005	1103.23 ± 2	1.4115 ± 0.0016
323.15 K, x1 = 0.4999	1110.76 ± 2	1.415 ± 0.0016
323.15 K, x1 = 0.6008	1115.77 ± 2	1.417 ± 0.0016
323.15 K, x1 = 0.7004	1119.58 ± 2	1.419 ± 0.0016
323.15 K, x1 = 0.7996	1122.43 ± 2	1.42 ± 0.0016
323.15 K, x1 = 0.8997	1124.55 ± 2	1.421 ± 0.0016
333.15 K, x1 = 0.3006	1087.71 ± 2	1.4075 ± 0.0016
333.15 K, x1 = 0.4005	1095.9 ± 2	1.4115 ± 0.0016
333.15 K, x1 = 0.4999	1103.62 ± 2	1.415 ± 0.0016
333.15 K, x1 = 0.6008	1108.78 ± 2	1.4155 ± 0.0016
333.15 K, x1 = 0.7004	1112.66 ± 2	1.417 ± 0.0016
333.15 K, x1 = 0.7996	1115.58 ± 2	1.418 ± 0.0016
333.15 K, x1 = 0.8997	1117.73 ± 2	1.419 ± 0.0017
343.15 K, x1 = 0.3006	1080.23 ± 2	1.4075 ± 0.002
343.15 K, x1 = 0.4005	1088.51 ± 2	1.4095 ± 0.0016
343.15 K, x1 = 0.4999	1096.51 ± 2	1.4125 ± 0.0017
343.15 K, x1 = 0.6008	1101.81 ± 2	1.414 ± 0.0016
343.15 K, x1 = 0.7004	1105.77 ± 2	1.4145 ± 0.0016
343.15 K, x1 = 0.7996	1108.76 ± 2	1.416 ± 0.0017
343.15 K, x1 = 0.8997	1110.94 ± 2	1.4165 ± 0.0017

CCCCCCCC[n+]1ccn(C)c1.F[B-](F)(F)F [1-methyl-3-octylimidazolium tetrafluoroborate] + O
Settings	mass density, [2] [kg/m3]	refractive index, [1]
293.15 K, x1 = 0.3005	1084.34 ± 2	1.4165 ± 0.0018
293.15 K, x1 = 0.4006	1089.21 ± 2	1.4205 ± 0.0016
293.15 K, x1 = 0.5002	1094.12 ± 2	1.424 ± 0.0016
293.15 K, x1 = 0.6001	1098.16 ± 2	1.4265 ± 0.0016
293.15 K, x1 = 0.7006	1100.51 ± 2	1.4285 ± 0.0016
293.15 K, x1 = 0.8004	1103.28 ± 2	1.4305 ± 0.0016
293.15 K, x1 = 0.9015	1104.81 ± 2	1.4315 ± 0.0016
303.15 K, x1 = 0.3005	1076.96 ± 2	1.414 ± 0.0016
303.15 K, x1 = 0.4006	1082.09 ± 2	1.419 ± 0.0016
303.15 K, x1 = 0.5002	1087.07 ± 2	1.422 ± 0.0016
303.15 K, x1 = 0.6001	1091.18 ± 2	1.425 ± 0.0016
303.15 K, x1 = 0.7006	1093.59 ± 2	1.4265 ± 0.0016
303.15 K, x1 = 0.8004	1096.42 ± 2	1.428 ± 0.0016
303.15 K, x1 = 0.9015	1098.01 ± 2	1.4295 ± 0.0017
313.15 K, x1 = 0.3005	1069.66 ± 2	1.413 ± 0.0016
313.15 K, x1 = 0.4006	1074.86 ± 2	1.4165 ± 0.0016
313.15 K, x1 = 0.5002	1080 ± 2	1.4205 ± 0.0016
313.15 K, x1 = 0.6001	1084.21 ± 2	1.423 ± 0.0016
313.15 K, x1 = 0.7006	1086.68 ± 2	1.4245 ± 0.0016
313.15 K, x1 = 0.8004	1089.58 ± 2	1.4265 ± 0.0016
313.15 K, x1 = 0.9015	1091.22 ± 2	1.427 ± 0.0016
323.15 K, x1 = 0.3005	1061.92 ± 2	1.4125 ± 0.0016
323.15 K, x1 = 0.4006	1067.52 ± 2	1.416 ± 0.0016
323.15 K, x1 = 0.5002	1072.9 ± 2	1.419 ± 0.0016
323.15 K, x1 = 0.6001	1077.21 ± 2	1.422 ± 0.0016
323.15 K, x1 = 0.7006	1079.77 ± 2	1.423 ± 0.0016
323.15 K, x1 = 0.8004	1082.8 ± 2	1.424 ± 0.0016
323.15 K, x1 = 0.9015	1084.48 ± 2	1.4255 ± 0.0016
333.15 K, x1 = 0.3005	–	1.412 ± 0.0016
333.15 K, x1 = 0.4006	–	1.415 ± 0.0016
333.15 K, x1 = 0.5002	–	1.4185 ± 0.0016
333.15 K, x1 = 0.6001	–	1.4195 ± 0.0016
333.15 K, x1 = 0.7006	–	1.421 ± 0.0016
333.15 K, x1 = 0.8004	–	1.4225 ± 0.0016
333.15 K, x1 = 0.9015	–	1.4235 ± 0.0016
343.15 K, x1 = 0.3005	1041.36 ± 2	1.412 ± 0.002
343.15 K, x1 = 0.4006	1049.84 ± 2	1.414 ± 0.0016
343.15 K, x1 = 0.5002	1057.37 ± 2	1.417 ± 0.0016
343.15 K, x1 = 0.6001	1062.23 ± 2	1.419 ± 0.0016
343.15 K, x1 = 0.7006	1065.07 ± 2	1.419 ± 0.0016
343.15 K, x1 = 0.8004	1069.34 ± 2	1.4205 ± 0.0016
343.15 K, x1 = 0.9015	1070.96 ± 2	1.4215 ± 0.0016
